Measurements reported in article PMC12387182, “Polyphenolic Profiling and Evaluation of Antioxidant, Antidiabetic, Anti-Alzheimer, and Antiglaucoma Activities of Allium kharputense and Anchusa azurea var. azurea” (Life, 2025).

Key:
ABTS scavenging activity = test: ABTS scavenging activity
Description: In addition, the ABTS^•^+ scavenging capacity of A. kharputense and A. azurea was determined. The mixture comprised 2 mM ABTS in water combined with 2.45 mM potassium persulfate (K2S2O8) to form ABTS^•+. This mixture was then kept for six hours at room temperature and in the dark. The study was performed by first diluting the solution in phosphate buffer (pH 7.4) to achieve an absorption of 0.800 ± 0.05 at 734 nm in a 1 mL cuvette. The solution was then equilibrated at 30 °C, the temperature at which all subsequent tests were conducted. Subsequently, 3 mL of each of A. kharputense and A. azurea in ethanol at various concentrations (10–30 µg/mL) were combined with 1 mL each of ABTS^•+ solution. Following a 30 min period of agitation, the absorbances were measured at 734 nm, and the radical scavenging activities were calculated for each concentration.

DPPH scavenging activity = test: DPPH scavenging activity
Description: DPPH solution was prepared one day before the experimental measurement. The solution bottle was kept in the dark and stirred at 4 °C for 16 h. Aluminum foil was used to cover the bottle. Shortly after the preparation of 0.1 mM DPPH solution in ethanol, 0.5 mL of this solution was added to 2 mL A. kharputense and A. azurea extracts in ethanol at various concentrations (10–30 µg/mL). A. kharputense and A. azurea samples were vortexed and incubated at 30 °C for 30 min in the dark. The DPPH^• absorbances were measured and evaluated at 517 nm in comparison with the blank sample [40].

[1] = cited from earlier work
α-glycosidase = α-glycosidase (Saccharomyces cerevisiae, UniProt P53341); settings: cited from earlier work
Sequence of α-glycosidase (P53341 whole entry): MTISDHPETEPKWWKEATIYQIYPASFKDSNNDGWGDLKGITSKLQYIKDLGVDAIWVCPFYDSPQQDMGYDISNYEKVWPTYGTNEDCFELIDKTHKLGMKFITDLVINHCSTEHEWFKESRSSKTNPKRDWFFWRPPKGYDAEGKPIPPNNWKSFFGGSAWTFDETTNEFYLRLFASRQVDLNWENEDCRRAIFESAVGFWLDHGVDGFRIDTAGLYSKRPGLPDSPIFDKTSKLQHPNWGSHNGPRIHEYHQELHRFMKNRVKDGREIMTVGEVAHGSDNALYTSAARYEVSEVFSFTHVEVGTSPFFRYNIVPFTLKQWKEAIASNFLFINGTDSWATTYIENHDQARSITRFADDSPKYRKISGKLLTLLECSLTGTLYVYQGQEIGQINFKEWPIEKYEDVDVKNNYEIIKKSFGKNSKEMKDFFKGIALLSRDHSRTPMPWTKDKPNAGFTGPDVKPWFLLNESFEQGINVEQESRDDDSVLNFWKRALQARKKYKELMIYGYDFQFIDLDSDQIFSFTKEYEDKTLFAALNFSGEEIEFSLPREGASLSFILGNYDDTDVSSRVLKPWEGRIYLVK

[2] = Cu^2+ reducing ability (CUPRAC); settings: absorbance at 30 µg/mL
Description: Equal volumes of 1.0 mM CuCl2, 7.5 mM neocuprine solutions, and 1.0 M ammonium acetate buffer (pH 6.5) were prepared according to the technique of Apak et al.. The plants were mixed with three different concentrations of the samples (15–45 µg/mL in ethanol), and the total reaction volume was adjusted to 2 mL. After the tubes were kept at room temperature for 30 min, the absorbance values at 450 nm were read spectrophotometrically.

[3] = Fe^3+-TPTZ reducing (FRAP); settings: absorbance at 30 µg/mL
Description: The ferric reducing capacity (FRAP) of plasma is measured using the technique outlined. At low pH, a strong blue hue with a maximum absorption at 593 nm is produced when a ferric–tripyridyltriazine (Fe^3+-TPTZ) complex is reduced to the Fe^2+ form.

Fe^3+ reducing = settings: absorbance at 30 µg/mL

SMILES	ABTS^•+ Scavenging IC50 (ABTS scavenging activity) [µg/mL]	DPPH^• Scavenging IC50 (DPPH scavenging activity) [µg/mL]	DPPH radical scavenging activity (IC50) [1] [µg/mL]	α-glycosidase inhibitory effect compared with Acarbose (α-glycosidase)	Cu^2+ Reducing A (450 nm) [2]	Fe^3+-TPTZ Reducing A (593 nm) [3]	Fe^3+ Reducing A (700 nm) (Fe^3+ reducing)
O=C1O[C@H]([C@@H](O)CO)C(O)=C1O [Ascorbic acid]	28.79 ± 0.120	18.61 ± 0.120	3.6	–	–	–	–
O=c1c(O[C@@H]2O[C@H](CO)[C@@H](O)[C@H](O)[C@H]2O)c(-c2ccc(O)c(O)c2)oc2cc(O)cc(O)c12 [isoquercitrin]	–	–	–	stronger than that of Acarbose	–	–	–
Cc1cc(C(C)(C)C)c(O)c(C(C)(C)C)c1 [BHT, butylated hydroxytoluene]	32.00 ± 0.100	13.34 ± 0.011	–	–	2.15 ± 0.068	1.50 ± 0.080	2.08 ± 0.062
Cc1c(C)c2c(c(C)c1O)CCC(C)(C(=O)O)O2 (centres unmarked) [Trolox]	53.26 ± 0.070	20.98 ± 0.016	–	–	1.04 ± 0.102	0.84 ± 0.010	1.45 ± 0.005
COc1ccc(O)c(C(C)(C)C)c1 [BHA, butylated hydroxyanisole]	38.59 ± 0.130	23.87 ± 0.097	–	–	1.58 ± 0.016	1.75 ± 0.040	1.76 ± 0.026
Cc1c(C)c2c(c(C)c1O)CC[C@@](C)(CCC[C@H](C)CCC[C@H](C)CCCC(C)C)O2 [α-Tocopherol, α-tocopherol]	25.12 ± 0.070	30.29 ± 0.056	–	–	1.47 ± 0.044	–	0.94 ± 0.059
